# Measured values published in publication PMC9005681, “Use of AD Informer Set compounds to explore validity of novel targets in Alzheimer's disease pathology” (Alzheimer's & Dementia : Translational Research & Clinical …, 2022).
# “And” between values parts separate entries of the source, which are not always exact repeats. Equal values may be shown once.
# How the values were obtained:
# Assay in all cases: PDSP GPCR panel primary binding assays at 10 μM
# [1] = biological target: T1, cloned human or rodent CNS receptors, channels, and transporters (PDSP panel) (Homo sapiens, UniProt P23975); conditions: NET, primary assay
# T1 construct: expressed in transfected cells
# T1 sequence (P23975 whole entry): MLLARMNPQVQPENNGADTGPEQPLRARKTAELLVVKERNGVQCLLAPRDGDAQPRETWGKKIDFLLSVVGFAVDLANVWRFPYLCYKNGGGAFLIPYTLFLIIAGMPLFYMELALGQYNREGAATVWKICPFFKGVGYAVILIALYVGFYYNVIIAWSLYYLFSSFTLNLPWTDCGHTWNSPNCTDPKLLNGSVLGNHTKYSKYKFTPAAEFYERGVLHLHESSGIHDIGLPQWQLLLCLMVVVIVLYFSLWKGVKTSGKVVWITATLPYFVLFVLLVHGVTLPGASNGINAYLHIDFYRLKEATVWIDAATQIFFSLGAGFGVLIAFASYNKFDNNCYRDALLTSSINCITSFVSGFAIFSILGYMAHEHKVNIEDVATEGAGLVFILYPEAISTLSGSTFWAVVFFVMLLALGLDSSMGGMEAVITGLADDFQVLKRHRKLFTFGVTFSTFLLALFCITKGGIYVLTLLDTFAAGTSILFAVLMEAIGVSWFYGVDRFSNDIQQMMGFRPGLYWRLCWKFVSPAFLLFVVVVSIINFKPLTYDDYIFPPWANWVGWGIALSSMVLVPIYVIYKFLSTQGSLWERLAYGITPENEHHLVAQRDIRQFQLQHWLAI
# How it was run: (§1)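 Secondary binding curves (11 points, triplicate) were run at targets where the 10 μM primary screen, done in quadruplicate, displaced over 50% of radio-labelled standard ligand on average. Primary screening covered 46–47 cloned human or rodent CNS targets; H3, PBR and GABAA were not followed up.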
# [2] = biological target: T2, cloned human or rodent CNS receptors, channels, and transporters (PDSP panel) (Homo sapiens, UniProt P21917); conditions: D4, primary assay
# T2 construct: expressed in transfected cells
# T2 sequence (P21917 1-419): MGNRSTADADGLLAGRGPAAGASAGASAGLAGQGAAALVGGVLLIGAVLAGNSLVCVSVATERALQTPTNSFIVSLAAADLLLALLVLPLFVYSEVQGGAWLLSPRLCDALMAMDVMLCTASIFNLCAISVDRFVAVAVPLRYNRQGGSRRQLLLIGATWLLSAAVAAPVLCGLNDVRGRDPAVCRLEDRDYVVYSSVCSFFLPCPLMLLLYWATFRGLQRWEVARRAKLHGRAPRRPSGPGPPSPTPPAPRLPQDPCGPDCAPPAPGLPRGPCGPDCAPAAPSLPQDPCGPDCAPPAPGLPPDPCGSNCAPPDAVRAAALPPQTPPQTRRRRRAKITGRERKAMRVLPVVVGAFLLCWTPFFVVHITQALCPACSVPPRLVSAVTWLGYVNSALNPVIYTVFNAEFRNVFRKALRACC
# How it was run: as §1
# [3] = biological target: T3, cloned human or rodent CNS receptors, channels, and transporters (PDSP panel) (Homo sapiens, UniProt P46098); conditions: 5-HT3, primary assay
# T3 construct: expressed in transfected cells
# T3 sequence (P46098 24-478): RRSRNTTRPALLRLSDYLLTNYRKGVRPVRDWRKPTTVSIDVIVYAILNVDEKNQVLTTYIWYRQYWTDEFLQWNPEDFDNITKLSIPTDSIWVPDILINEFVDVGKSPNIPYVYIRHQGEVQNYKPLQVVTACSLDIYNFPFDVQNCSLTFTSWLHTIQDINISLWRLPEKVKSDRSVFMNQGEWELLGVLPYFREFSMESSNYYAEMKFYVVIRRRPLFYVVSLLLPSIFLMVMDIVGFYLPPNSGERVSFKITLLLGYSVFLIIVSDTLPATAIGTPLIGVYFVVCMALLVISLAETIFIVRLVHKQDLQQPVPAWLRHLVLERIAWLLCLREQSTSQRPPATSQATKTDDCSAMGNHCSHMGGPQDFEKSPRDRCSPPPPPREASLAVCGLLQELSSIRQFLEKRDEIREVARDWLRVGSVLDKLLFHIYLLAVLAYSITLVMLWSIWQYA
# How it was run: as §1
# [4] = biological target: T4, cloned human or rodent CNS receptors, channels, and transporters (PDSP panel) (Homo sapiens, UniProt P08172); conditions: M2, primary assay
# T4 construct: expressed in transfected cells
# T4 sequence (P08172 1-466): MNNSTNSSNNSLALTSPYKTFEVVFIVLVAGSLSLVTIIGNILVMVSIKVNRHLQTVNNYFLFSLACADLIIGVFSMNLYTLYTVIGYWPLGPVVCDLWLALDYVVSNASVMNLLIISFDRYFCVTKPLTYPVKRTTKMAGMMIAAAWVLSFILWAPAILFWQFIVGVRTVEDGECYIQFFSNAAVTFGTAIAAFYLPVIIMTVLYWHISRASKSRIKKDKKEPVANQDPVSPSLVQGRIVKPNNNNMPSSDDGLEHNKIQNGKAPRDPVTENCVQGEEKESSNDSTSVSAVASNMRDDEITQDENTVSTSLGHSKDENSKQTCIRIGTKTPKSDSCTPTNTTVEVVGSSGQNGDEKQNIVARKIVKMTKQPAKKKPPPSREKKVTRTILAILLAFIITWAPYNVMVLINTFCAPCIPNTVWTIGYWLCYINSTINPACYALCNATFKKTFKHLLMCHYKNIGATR
# How it was run: as §1
# [5] = biological target: T5, cloned human or rodent CNS receptors, channels, and transporters (PDSP panel) (Homo sapiens, UniProt P21728); conditions: D1, primary assay
# T5 construct: expressed in transfected cells
# T5 sequence (P21728 whole entry): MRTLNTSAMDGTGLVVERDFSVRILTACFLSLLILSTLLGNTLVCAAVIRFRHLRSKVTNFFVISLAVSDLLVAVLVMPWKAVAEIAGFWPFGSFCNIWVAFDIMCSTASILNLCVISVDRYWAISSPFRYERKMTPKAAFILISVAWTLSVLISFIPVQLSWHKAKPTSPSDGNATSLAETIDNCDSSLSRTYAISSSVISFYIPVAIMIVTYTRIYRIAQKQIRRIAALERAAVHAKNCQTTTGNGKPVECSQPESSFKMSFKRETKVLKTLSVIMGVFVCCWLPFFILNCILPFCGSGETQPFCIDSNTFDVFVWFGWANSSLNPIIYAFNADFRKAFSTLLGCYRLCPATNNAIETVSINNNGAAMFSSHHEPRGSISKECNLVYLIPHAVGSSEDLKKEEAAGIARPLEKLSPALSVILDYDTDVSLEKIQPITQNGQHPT
# How it was run: as §1
# [6] = biological target: T6, cloned human or rodent CNS receptors, channels, and transporters (PDSP panel) (Homo sapiens, UniProt P28223); conditions: 5-HT2A, primary assay
# T6 construct: expressed in transfected cells
# T6 sequence (P28223 whole entry): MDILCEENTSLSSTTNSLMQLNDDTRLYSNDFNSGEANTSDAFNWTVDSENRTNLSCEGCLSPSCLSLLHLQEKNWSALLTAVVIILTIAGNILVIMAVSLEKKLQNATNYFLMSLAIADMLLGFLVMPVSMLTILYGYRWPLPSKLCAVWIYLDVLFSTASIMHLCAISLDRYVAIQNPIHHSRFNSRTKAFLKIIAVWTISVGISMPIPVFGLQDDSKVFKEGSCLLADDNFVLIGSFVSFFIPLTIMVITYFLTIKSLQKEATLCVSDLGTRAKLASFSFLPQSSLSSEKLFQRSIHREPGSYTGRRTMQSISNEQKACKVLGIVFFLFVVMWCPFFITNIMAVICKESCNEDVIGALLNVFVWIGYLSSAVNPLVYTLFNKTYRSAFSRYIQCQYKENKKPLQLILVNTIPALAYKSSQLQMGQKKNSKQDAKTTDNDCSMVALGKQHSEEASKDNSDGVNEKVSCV
# How it was run: as §1
# [7] = biological target: T7, cloned human or rodent CNS receptors, channels, and transporters (PDSP panel) (Homo sapiens, UniProt P50406); conditions: 5-HT6, primary assay
# T7 construct: expressed in transfected cells
# T7 sequence (P50406 whole entry): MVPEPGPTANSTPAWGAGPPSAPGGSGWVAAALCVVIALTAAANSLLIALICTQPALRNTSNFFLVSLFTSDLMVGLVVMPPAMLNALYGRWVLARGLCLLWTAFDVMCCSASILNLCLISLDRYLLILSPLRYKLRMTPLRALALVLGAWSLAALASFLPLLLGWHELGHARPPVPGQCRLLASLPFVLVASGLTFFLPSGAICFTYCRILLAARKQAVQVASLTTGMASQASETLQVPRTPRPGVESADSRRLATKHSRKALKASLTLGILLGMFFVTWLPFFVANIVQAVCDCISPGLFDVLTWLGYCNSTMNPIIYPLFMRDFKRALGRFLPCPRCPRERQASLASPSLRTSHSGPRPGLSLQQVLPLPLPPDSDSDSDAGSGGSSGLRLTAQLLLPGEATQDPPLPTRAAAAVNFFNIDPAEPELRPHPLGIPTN
# How it was run: as §1
smiles,measurement,setting,value
"CCC(=O)N1CCC(NC(=O)Nc2ccc(OC(F)(F)F)cc2)CC1 [UNC10302681A, TPPU]",Mean %,[1]; mean inhibition,2.26% and 4.05%
same,Inhibition 1,[1]; replicate 1,-18.41% and 34.38%
same,Inhibition 2,[1]; replicate 2,-17.53% and 14.34%
same,Inhibition 3,[1]; replicate 3,0.52% and -19%
same,Inhibition 4,[1]; replicate 4,44.45% and -13.54%
same,Mean %,[2]; mean inhibition,5.93%
same,Inhibition 1,[2]; replicate 1,5.07%
same,Inhibition 2,[2]; replicate 2,3.44%
same,Inhibition 3,[2]; replicate 3,0%
same,Inhibition 4,[2]; replicate 4,15.2%
same,Mean %,[3]; mean inhibition,17.23%
same,Inhibition 1,[3]; replicate 1,6.76%
same,Inhibition 2,[3]; replicate 2,16.16%
same,Inhibition 3,[3]; replicate 3,12.2%
same,Inhibition 4,[3]; replicate 4,33.8%
same,Mean %,[4]; mean inhibition,-13.3%
same,Inhibition 1,[4]; replicate 1,-14.72%
same,Inhibition 2,[4]; replicate 2,-20.61%
same,Inhibition 3,[4]; replicate 3,-11.27%
same,Inhibition 4,[4]; replicate 4,-6.61%
same,Mean %,[5]; mean inhibition,-1.82%
same,Inhibition 1,[5]; replicate 1,-5.26%
same,Inhibition 2,[5]; replicate 2,-2.83%
same,Inhibition 3,[5]; replicate 3,-3.8%
same,Inhibition 4,[5]; replicate 4,4.61%
same,Mean %,[6]; mean inhibition,-2.37%
same,Inhibition 1,[6]; replicate 1,0.31%
same,Inhibition 2,[6]; replicate 2,-4.96%
same,Inhibition 3,[6]; replicate 3,-8.74%
same,Inhibition 4,[6]; replicate 4,3.92%
same,Mean %,[7]; mean inhibition,-0.91%
same,Inhibition 1,[7]; replicate 1,25.92%
same,Inhibition 2,[7]; replicate 2,-7.74%
same,Inhibition 3,[7]; replicate 3,-9.33%
same,Inhibition 4,[7]; replicate 4,-12.5%
